Key:
NCI-H226 = assay: Growth inhibition of human NCI-H226 cells assessed as cell growth at 1 uM incubated for 48 hrs by sulforhodamine B assay relative to control; type: functional; conditions: NCI-H226, 48 h, read-out: Activity
U-251 = assay: Growth inhibition of human U251 cells assessed as cell growth at 0.01 uM incubated for 48 hrs by sulforhodamine B assay relative to control; type: functional; conditions: U-251, 48 h, read-out: Activity
786-0 = assay: Growth inhibition of human 786-0 cells incubated for 48 hrs by sulforhodamine B assay; type: functional, cell-based; conditions: 786-0, 48 h
MDA-MB-435 [1] = assay: Growth inhibition of human MDA-MB-435 cells assessed as cell growth at 1 uM incubated for 48 hrs by sulforhodamine B assay relative to control; type: functional; conditions: MDA-MB-435, 48 h, read-out: Activity
T47D = assay: Growth inhibition of human T47D cells assessed as cell growth at 0.01 uM incubated for 48 hrs by sulforhodamine B assay relative to control; type: functional; conditions: read-out: Activity
HCC 2998 = assay: Growth inhibition of human HCC2998 cells assessed as cell growth at 1 uM incubated for 48 hrs by sulforhodamine B assay relative to control; type: functional; conditions: HCC 2998, 48 h, read-out: Activity
SW-620 = assay: Growth inhibition of human SW620 cells assessed as cell growth at 0.01 uM incubated for 48 hrs by sulforhodamine B assay relative to control; type: functional; conditions: SW-620, 48 h, read-out: Activity
HCT-15 = assay: Growth inhibition of human HCT15 cells assessed as cell growth at 100 uM incubated for 48 hrs by sulforhodamine B assay relative to control; type: functional; conditions: HCT-15, 48 h, read-out: Activity
M14 = assay: Growth inhibition of human M14 cells assessed as cell growth at 0.1 uM incubated for 48 hrs by sulforhodamine B assay relative to control; type: functional; conditions: M14, 48 h, read-out: Activity
K562 = assay: Growth inhibition of human K562 cells assessed as cell growth at 0.1 uM incubated for 48 hrs by sulforhodamine B assay relative to control; type: functional; conditions: K562, 48 h, read-out: Activity
HCT-116 = assay: Growth inhibition of human HCT116 cells assessed as cell growth at 100 uM incubated for 48 hrs by sulforhodamine B assay relative to control; type: functional; conditions: HCT-116, 48 h, read-out: Activity
OVCAR-8 = assay: Growth inhibition of human OVCAR8 cells assessed as cell growth at 0.1 uM incubated for 48 hrs by sulforhodamine B assay relative to control; type: functional; conditions: OVCAR-8, 48 h, read-out: Activity
SNB-19 = assay: Growth inhibition of human SNB19 cells assessed as cell growth at 0.01 uM incubated for 48 hrs by sulforhodamine B assay relative to control; type: functional; conditions: SNB-19, 48 h, read-out: Activity
MDA-MB-468 = assay: Growth inhibition of human MDA-MB-468 cells incubated for 48 hrs by sulforhodamine B assay; type: functional, cell-based; conditions: MDA-MB-468, 48 h
MDA-MB-435 [2] = assay: Growth inhibition of human MDA-MB-435 cells incubated for 48 hrs by sulforhodamine B assay; type: functional, cell-based; conditions: MDA-MB-435, 48 h
OVCAR-3 = assay: Growth inhibition of human OVCAR3 cells assessed as cell growth at 100 uM incubated for 48 hrs by sulforhodamine B assay relative to control; type: functional; conditions: OVCAR-3, 48 h, read-out: Activity
OVCAR-5 = assay: Growth inhibition of human OVCAR5 cells incubated for 48 hrs by sulforhodamine B assay; type: functional, cell-based; conditions: OVCAR-5, 48 h
OVCAR-4 [3] = assay: Growth inhibition of human OVCAR4 cells assessed as cell growth at 0.01 uM incubated for 48 hrs by sulforhodamine B assay relative to control; type: functional; conditions: OVCAR-4, 48 h, read-out: Activity
A498 = assay: Growth inhibition of human A498 cells incubated for 48 hrs by sulforhodamine B assay; type: functional, cell-based; conditions: A498, 48 h
MOLT-4 = assay: Growth inhibition of human MOLT4 cells assessed as cell growth at 1 uM incubated for 48 hrs by sulforhodamine B assay relative to control; type: functional; conditions: MOLT-4, 48 h, read-out: Activity
SR = assay: Growth inhibition of human SR cells assessed as cell growth at 0.01 uM incubated for 48 hrs by sulforhodamine B assay relative to control; type: functional; conditions: read-out: Activity
SK-MEL-2 = assay: Growth inhibition of human SK-MEL-2 cells assessed as cell growth at 0.1 uM incubated for 48 hrs by sulforhodamine B assay relative to control; type: functional; conditions: SK-MEL-2, 48 h, read-out: Activity
OVCAR-4 [4] = assay: Growth inhibition of human OVCAR4 cells incubated for 48 hrs by sulforhodamine B assay; type: functional, cell-based; conditions: OVCAR-4, 48 h
HT-29 = assay: Growth inhibition of human HT-29 cells incubated for 48 hrs by sulforhodamine B assay; type: functional, cell-based; conditions: HT-29, 48 h
Hs-578T = assay: Growth inhibition of human Hs578T cells assessed as cell growth at 1 uM incubated for 48 hrs by sulforhodamine B assay relative to control; type: functional; conditions: read-out: Activity
A549 = assay: Growth inhibition of human A549/ATCC cells assessed as cell growth at 1 uM incubated for 48 hrs by sulforhodamine B assay relative to control; type: functional; conditions: A549, 48 h, read-out: Activity
LOX IMVI = assay: Growth inhibition of human LOXIMVI cells incubated for 48 hrs by sulforhodamine B assay; type: functional
[5] = read-out: LC50 (the source's name)
[6] = read-out: pLC50 (the source's name) (converted)

**Q.** Which results are given for `O=C(Nc1cccc(-n2cc(-c3ccncc3)c(-c3cc(O)cc(Cl)c3)n2)c1)Nc1ccc(Cl)c(Cl)c1`?
**A.** growth at 1 µM (NCI-H226): 96%; growth at 0.01 µM (U-251): 96%; GI50 (786-0; read-out: GI50): 1480 nM; CC50 (786-0; [5]): 9.31 µM; TGI (786-0; read-out: TGI): 37.1 µM; GI50 (786-0; read-out: pGI50 (converted)): 1480 nM; CC50 (786-0; [6]): 9.33 µM; TGI (786-0; read-out: pTGI (converted)): 3.72 µM; growth at 1 µM (MDA-MB-435 [1]): 79%; growth at 0.01 µM (T47D): 106%; growth at 1 µM (HCC 2998): 96%; growth at 0.01 µM (SW-620): 96%; growth at 100 µM (HCT-15): -23%; growth at 0.1 µM (M14): 93%; growth at 0.1 µM (K562): 100%; growth at 100 µM (HCT-116): -61%; growth at 0.1 µM (OVCAR-8): 97%; growth at 0.01 µM (SNB-19): 97%; IC50 (MDA-MB-468): 1710 nM; GI50 (MDA-MB-468; read-out: GI50): 1700 nM; CC50 (MDA-MB-468; [5]): > 100 µM; TGI (MDA-MB-468; read-out: TGI): 70.9 µM; GI50 (MDA-MB-468; read-out: pGI50 (converted)): 1700 nM; CC50 (MDA-MB-468; [6]): > 100 µM; TGI (MDA-MB-468; read-out: pTGI (converted)): 7.08 µM; GI50 (MDA-MB-435 [2]; read-out: GI50): 1500 nM; TGI (MDA-MB-435 [2]; read-out: TGI): 35.8 µM; GI50 (MDA-MB-435 [2]; read-out: pGI50 (converted)): 1580 nM; TGI (MDA-MB-435 [2]; read-out: pTGI (converted)): 3.55 µM; growth at 100 µM (OVCAR-3): -20%; GI50 (OVCAR-5; read-out: GI50): 2140 nM; CC50 (OVCAR-5; [5]): 5.42 µM; TGI (OVCAR-5; read-out: TGI): 51.6 µM; GI50 (OVCAR-5; read-out: pGI50 (converted)): 2140 nM; CC50 (OVCAR-5; [6]): 53.7 µM; TGI (OVCAR-5; read-out: pTGI (converted)): 6.17 µM; growth at 0.01 µM (OVCAR-4 [3]): 108%; GI50 (A498; read-out: GI50): 2090 nM; CC50 (A498; [5]): 4.13 µM; TGI (A498; read-out: TGI): 90.6 µM; GI50 (A498; read-out: pGI50 (converted)): 2090 nM; CC50 (A498; [6]): 41.7 µM; TGI (A498; read-out: pTGI (converted)): 9.12 µM; growth at 1 µM (MOLT-4): 84%; growth at 0.01 µM (SR): 57%; growth at 0.1 µM (SK-MEL-2): 96%; GI50 (OVCAR-4 [4]; read-out: GI50): 2900 nM; CC50 (OVCAR-4 [4]; [5]): > 100 µM; GI50 (OVCAR-4 [4]; read-out: pGI50 (converted)): 2950 nM; CC50 (OVCAR-4 [4]; [6]): > 100 µM; GI50 (HT-29; read-out: GI50): 1920 nM; CC50 (HT-29; [5]): 7.9 µM; TGI (HT-29; read-out: TGI): 39 µM; GI50 (HT-29; read-out: pGI50 (converted)): 1910 nM; CC50 (HT-29; [6]): 7.94 µM; TGI (HT-29; read-out: pTGI (converted)): 3.89 µM; growth at 1 µM (Hs-578T): 57%; growth at 1 µM (A549): 75%; GI50 (LOX IMVI; read-out: GI50): 1560 nM; TGI (LOX IMVI; read-out: TGI): 41 µM; GI50 (LOX IMVI; read-out: pGI50 (converted)): 1860 nM; TGI (LOX IMVI; read-out: pTGI (converted)): 4.17 µM

Reference: ChEMBL document CHEMBL4308841, “Synthesis, in vitro antiproliferative activity, and kinase inhibitory effects of pyrazole-containing diarylureas and diarylamides” (Eur J Med Chem, 2018)
